Reference: PubChem BioAssay (NCI)
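Each compound was tested at five concentrations against cells in 96-well plates for 48 hours. GI50: concentration for 50% inhibition of growth. TGI: concentration producing complete growth inhibition.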

Tests used:
Test in all cases: growth of human tumour cells (NCI), 48 h
OVCAR-3 ovarian = system: OVCAR-3 ovarian
ACHN renal = system: ACHN renal
SK-MEL-2 melanoma = system: SK-MEL-2 melanoma
MALME-3M melanoma = system: MALME-3M melanoma
SNB-75 CNS = system: SNB-75 CNS
NCI-H23 lung = system: NCI-H23 lung
A498 renal = system: A498 renal
UO-31 renal = system: UO-31 renal
HS 578T breast = system: HS 578T breast
SK-MEL-28 melanoma = system: SK-MEL-28 melanoma
MDA-MB-435 = system: MDA-MB-435
SN12C renal = system: SN12C renal
SK-OV-3 ovarian = system: SK-OV-3 ovarian
SW-620 colon = system: SW-620 colon
OVCAR-4 ovarian = system: OVCAR-4 ovarian
RXF 393 renal = system: RXF 393 renal
HOP-92 NSCLC = system: HOP-92 NSCLC
SF-295 CNS = system: SF-295 CNS
NCI/ADR-RES ovarian = system: NCI/ADR-RES ovarian
OVCAR-5 ovarian = system: OVCAR-5 ovarian
NCI-H522 lung = system: NCI-H522 lung
HCT-15 colon = system: HCT-15 colon
UACC-62 melanoma = system: UACC-62 melanoma
UACC-257 melanoma = system: UACC-257 melanoma
EKVX NSCLC = system: EKVX NSCLC
DU-145 prostate = system: DU-145 prostate
TK-10 renal = system: TK-10 renal
SK-MEL-5 melanoma = system: SK-MEL-5 melanoma
SNB-19 CNS = system: SNB-19 CNS
SF-539 CNS = system: SF-539 CNS
MCF7 breast = system: MCF7 breast
MDA-MB-231 breast = system: MDA-MB-231 breast
U251 CNS = system: U251 CNS
M14 melanoma = system: M14 melanoma
RPMI-8226 leukemia = system: RPMI-8226 leukemia
NCI-H226 lung = system: NCI-H226 lung
OVCAR-8 ovarian = system: OVCAR-8 ovarian
COLO 205 colon = system: COLO 205 colon
HT29 colon = system: HT29 colon
SR leukemia = system: SR leukemia
MOLT-4 leukemia = system: MOLT-4 leukemia
NCI-H460 lung = system: NCI-H460 lung
A549 NSCLC = system: A549 NSCLC
HCC-2998 colon = system: HCC-2998 colon
HL-60(TB) leukemia = system: HL-60(TB) leukemia
K-562 leukemia = system: K-562 leukemia
SF-268 CNS = system: SF-268 CNS
HCT-116 colon = system: HCT-116 colon
CCRF-CEM leukemia = system: CCRF-CEM leukemia
IGROV1 ovarian = system: IGROV1 ovarian
HOP-62 NSCLC = system: HOP-62 NSCLC
786-0 renal = system: 786-0 renal
CAKI-1 renal = system: CAKI-1 renal
BT-549 breast = system: BT-549 breast
PC-3 prostate = system: PC-3 prostate
KM12 colon = system: KM12 colon

CCOC(=O)c1cc(C(=O)c2ccc(Cl)cc2)n2ccc(-c3cc[n+](CC(=O)c4ccc(OC)cc4)cc3)cc12
GI50 (OVCAR-3 ovarian): 1.88 µM
TGI (OVCAR-3 ovarian): 3.65 µM
GI50 (ACHN renal): 1.78 µM
TGI (ACHN renal): 3.31 µM
GI50 (SK-MEL-2 melanoma): 2.04 µM
TGI (SK-MEL-2 melanoma): 4.36 µM
GI50 (MALME-3M melanoma): 2.01 µM
TGI (MALME-3M melanoma): 3.98 µM
GI50 (SNB-75 CNS): 1.47 µM
TGI (SNB-75 CNS): 3.09 µM
GI50 (NCI-H23 lung): 1.84 µM
TGI (NCI-H23 lung): 3.74 µM
GI50 (A498 renal): 1.6 µM
TGI (A498 renal): 3.17 µM
GI50 (UO-31 renal): 1.47 µM
TGI (UO-31 renal): 2.99 µM
GI50 (HS 578T breast): 1.81 µM
TGI (HS 578T breast): 4.38 µM
GI50 (SK-MEL-28 melanoma): 1.89 µM
TGI (SK-MEL-28 melanoma): 3.74 µM
GI50 (MDA-MB-435): 1.86 µM
TGI (MDA-MB-435): 3.67 µM
GI50 (SN12C renal): 1.83 µM
TGI (SN12C renal): 3.59 µM
GI50 (SK-OV-3 ovarian): 2.01 µM
TGI (SK-OV-3 ovarian): 3.62 µM
GI50 (SW-620 colon): 1.38 µM
TGI (SW-620 colon): 3.27 µM
GI50 (OVCAR-4 ovarian): 1.68 µM
TGI (OVCAR-4 ovarian): 3.4 µM
GI50 (RXF 393 renal): 1.4 µM
TGI (RXF 393 renal): 3.03 µM
GI50 (HOP-92 NSCLC): 1.49 µM
TGI (HOP-92 NSCLC): 3.17 µM
GI50 (SF-295 CNS): 1.7 µM
TGI (SF-295 CNS): 3.32 µM
GI50 (NCI/ADR-RES ovarian): 3.16 µM
TGI (NCI/ADR-RES ovarian): 33 µM
GI50 (OVCAR-5 ovarian): 1.82 µM
TGI (OVCAR-5 ovarian): 3.69 µM
GI50 (NCI-H522 lung): 1.93 µM
TGI (NCI-H522 lung): 3.89 µM
GI50 (HCT-15 colon): 1.64 µM
TGI (HCT-15 colon): 3.6 µM
GI50 (UACC-62 melanoma): 1.82 µM
TGI (UACC-62 melanoma): 3.52 µM
GI50 (UACC-257 melanoma): 2.21 µM
TGI (UACC-257 melanoma): 4.53 µM
GI50 (EKVX NSCLC): 1.69 µM
TGI (EKVX NSCLC): 3.5 µM
GI50 (DU-145 prostate): 1.69 µM
TGI (DU-145 prostate): 3.2 µM
GI50 (TK-10 renal): 1.76 µM
TGI (TK-10 renal): 3.37 µM
GI50 (SK-MEL-5 melanoma): 1.77 µM
TGI (SK-MEL-5 melanoma): 3.42 µM
GI50 (SNB-19 CNS): 1.83 µM
TGI (SNB-19 CNS): 3.73 µM
GI50 (SF-539 CNS): 1.68 µM
TGI (SF-539 CNS): 3.27 µM
GI50 (MCF7 breast): 1.4 µM
TGI (MCF7 breast): 3.36 µM
GI50 (MDA-MB-231 breast): 1.59 µM
TGI (MDA-MB-231 breast): 3.25 µM
GI50 (U251 CNS): 1.7 µM
TGI (U251 CNS): 3.54 µM

Cc1ccc(O)c(N=Nc2c(O)cc(S(=O)(=O)O)c3ccccc23)c1
TGI (OVCAR-3 ovarian): 76.2 µM
TGI (ACHN renal): > 100 µM
TGI (M14 melanoma): > 100 µM
TGI (RPMI-8226 leukemia): > 100 µM
TGI (SK-MEL-2 melanoma): > 100 µM
TGI (MALME-3M melanoma): > 100 µM
TGI (NCI-H226 lung): > 100 µM
TGI (OVCAR-8 ovarian): > 100 µM
TGI (UO-31 renal): 79.6 µM
TGI (HS 578T breast): > 100 µM
TGI (COLO 205 colon): > 100 µM
TGI (SK-MEL-28 melanoma): > 100 µM
TGI (HT29 colon): > 100 µM
TGI (MDA-MB-435): > 100 µM
TGI (SR leukemia): > 100 µM
TGI (SK-OV-3 ovarian): > 100 µM
TGI (SW-620 colon): > 100 µM
TGI (MOLT-4 leukemia): 95.3 µM
TGI (NCI-H460 lung): > 100 µM
TGI (A549 NSCLC): > 100 µM
TGI (HCC-2998 colon): > 100 µM
TGI (HL-60(TB) leukemia): 64 µM
TGI (OVCAR-4 ovarian): > 100 µM
TGI (RXF 393 renal): > 100 µM
TGI (HOP-92 NSCLC): > 100 µM
TGI (K-562 leukemia): > 100 µM
TGI (SF-268 CNS): > 100 µM
TGI (HCT-116 colon): 62.5 µM
TGI (CCRF-CEM leukemia): > 100 µM
TGI (SF-295 CNS): > 100 µM
TGI (IGROV1 ovarian): > 100 µM
TGI (NCI/ADR-RES ovarian): 86.5 µM
TGI (OVCAR-5 ovarian): > 100 µM
TGI (HCT-15 colon): > 100 µM
TGI (UACC-62 melanoma): > 100 µM
TGI (HOP-62 NSCLC): > 100 µM
TGI (UACC-257 melanoma): > 100 µM
TGI (786-0 renal): > 100 µM
TGI (EKVX NSCLC): > 100 µM
TGI (CAKI-1 renal): > 100 µM
TGI (BT-549 breast): > 100 µM
TGI (TK-10 renal): > 100 µM
TGI (SK-MEL-5 melanoma): 77.6 µM
TGI (PC-3 prostate): > 100 µM
TGI (SF-539 CNS): > 100 µM
TGI (KM12 colon): > 100 µM
TGI (MCF7 breast): > 100 µM
TGI (MDA-MB-231 breast): > 100 µM
TGI (U251 CNS): > 100 µM
